Measurements reported in US11970493B2, “Autotaxin inhibitor compounds” (ILDONG PHARMACEUTICAL CO., LTD., priority 2020, dated 2024).
pIC50: −log10 of the molar value. Counter-ions that a name gives are not always drawn.

The molecules below were run against hATX/ENPP2 (Homo sapiens, UniProt Q13822) (assay: hATX/ENPP2 biochemical assay using 16:0-LPC as substrate (Amplex Red/choline oxidase/HRP fluorescence)). Conditions: hENPP2 2.5 nM, LPC (16:0) substrate.
Protocol: The enzyme is diluted in 50 mM Tris-HCl pH 8.0, 140 mM NaCl, 5 mM CaCl2, 0.01% Triton X-100 in a total volume of 5 μL. The aqueous solution of enzyme is added to the wells and incubated with different concentrations of the compounds at room temperature for 15 min. The reaction is started by the addition of 5 μL of 80 μM LPC (16:0) and 10 μL of the detection mixture containing 200 μM Amplex Red, 10 U/mL choline oxidase and 4 U/mL HRP. Fluorescence at 590 nm was measured kinetically with excitation at 530 nm. The slope of the curve (from 60 to 70 min of the reaction time) was used to calculate the compounds' IC50 values.
With CCc1nc2ccc(-c3ccc(N4CCC(NC(=O)C5(O)CC5)CC4)nc3)cn2c1N(C)c1nc(-c2ccc(F)cc2)c(C#N)s1 [Compound 98, N-(1-(5-(3-((5-cyano-4-(4-fluorophenyl)thiazol-2-yl)(methyl)amino)-2-ethylimidazo[1,2-a]pyridin-6-yl)pyridin-2-yl)piperidin-4-yl)-1-hydroxycyclopropane-1-carboxamide] the pIC50 was at least 7.70.
In the case of CCc1nc2ccc(-c3ccc(N4CCN(C(=O)NC5CNC5)CC4)nc3)cn2c1N(C)c1nc(-c2ccc(F)cc2)c(C#N)s1 [Compound 96 hydrochloride, N-(azetidin-3-yl)-4-(5-(3-((5-cyano-4-(4-fluorophenyl)thiazol-2-yl)(methyl)amino)-2-ethylimidazo[1,2-a]pyridin-6-yl)pyridin-2-yl) piperazine-1-carboxamide hydrochloride], the pIC50 was 6.70 to 7.70.
CCc1nc2ccc(-c3ccc(N4CCN(CC(=O)N5CC[C@H](O)C5)CC4)nc3)cn2c1N(C)c1nc(-c2ccc(F)cc2)c(C#N)s1 [Compound 91, (S)-2-((2-ethyl-6-(6-(4-(2-(3-hydroxypyrrolidin-1-yl)-2-oxoethyl)piperazin-1-yl)pyridin-3-yl)imidazo[1,2-a]pyridin-3-yl)(methyl)amino)-4-(4-fluorophenyl) thiazole-5-carbonitrile] was tested, and the pIC50 was at least 7.70.
Molecule CCc1nc2ccc(-c3cnc(C4CCN(C(=O)N5CCCC5)CC4)nc3)cn2c1N(C)c1nc(-c2ccc(F)cc2)c(C#N)s1 [Compound 102, 2-((2-ethyl-6-(2-(1-(pyrrolidine-1-carbonyl)piperidin-4-yl)pyrimidin-5-yl)imidazo[1,2-a]pyridin-3-yl)(methyl)amino)-4-(4-fluorophenyl)thiazole-5-carbonitrile] has a pIC50 of 6.70 to 7.70.
For CCc1nc2ccc(-c3ccc(N4CC(C(=O)NC5(CO)CC5)C4)nc3)cn2c1N(C)c1nc(-c2ccc(F)cc2)c(C#N)s1 [Compound 97, 1-(5-(3-((5-cyano-4-(4-fluorophenyl)thiazol-2-yl)(methyl)amino)-2-ethylimidazo[1,2-a]pyridin-6-yl)pyridin-2-yl)-N-(1-(hydroxymethyl)cyclopropyl)azetidine-3-carboxamide], the pIC50 was 6.70 to 7.70.
Work on CCc1nc2ccc(-c3cnc(N4CCC(NC5(CO)CC5)CC4)nc3)cn2c1N(C)c1nc(-c2ccc(F)cc2)c(C#N)s1 [Compound 18, 2-((2-ethyl-6-(2-(4-((1-(hydroxymethyl)cyclopropyl)amino)piperidin-1-yl)pyrimidin-5-yl)imidazo[1,2-a]pyridin-3-yl) (methyl)amino)-4-(4-fluorophenyl)thiazole-5-carbonitrile] yielded a pIC50 of at least 7.70.
With CCc1nc2ccc(-c3cnc(N4CCC(NC(=O)C5CCNCC5)CC4)nc3)cn2c1N(C)c1nc(-c2ccc(F)cc2)c(C#N)s1 [Compound 84, N-(1-(5-(3-((5-cyano-4-(4-fluorophenyl)thiazol-2-yl)(methyl)amino)-2-ethylimidazo[1,2-a]pyridin-6-yl)pyrimidin-2-yl)piperidin-4-yl)piperidine-4-carboxamide] the pIC50 was at least 7.70.
CCc1nc2ccc(-c3cnc(N4CCN(C(=O)[C@H]5C[C@@H](O)CN5)CC4)nc3)cn2c1N(C)c1nc(-c2ccc(F)cc2)c(C#N)s1 [Compound 6, 2-((2-ethyl-6-(2-(4-((2R,4R)-4-hydroxypyrrolidine-2-carbonyl)piperazin-1-yl)pyrimidin-5-yl)imidazo[1,2-a]pyridin-3-yl) (methyl)amino)-4-(4-fluorophenyl)thiazole-5-carbonitrile] was tested, and the pIC50 was at least 7.70.
With CCc1nc2ccc(-c3cnc(N4CC(C(=O)NC5CNC5)C4)nc3)cn2c1N(C)c1nc(-c2ccc(F)cc2)c(C#N)s1 [70 (hydrochloride salt), N-(azetidin-3-yl)-1-(5-(3-((5-cyano-4-(4-fluorophenyl)thiazol-2-yl)(methyl)amino)-2-ethylimidazo[1,2-a]pyridin-6-yl)pyrimidin-2-vl) azetidine-3-carboxamide hydrochloride] the pIC50 was 6.70 to 7.70.
Work on CCc1nc2ccc(-c3cnc(CC(N)=O)nc3)cn2c1N(C)c1nc(-c2ccc(F)cc2)c(C#N)s1 [Compound 60, 2-(5-(3-((5-cyano-4-(4-fluorophenyl)thiazol-2-yl)(methyl)amino)-2-ethylimidazo[1,2-a]pyridin-6-yl)pyrimidin-2-yl)acetamide] yielded a pIC50 of 6.70 to 7.70.
Work on CCc1nc2ccc(-c3cnc(CC(=O)N4CC(O)C4)nc3)cn2c1N(C)c1nc(-c2ccc(F)cc2)c(C#N)s1 [Compound 52, 2-((2-ethyl-6-(2-(2-(3-hydroxyazetidin-1-yl)-2-oxoethyl)pyrimidin-5-yl)imidazo[1,2-a]pyridin-3-yl)(methyl)amino)-4-(4-fluorophenyl)thiazole-5-carbonitrile] yielded a pIC50 of 6.70 to 7.70.
In the case of CCc1nc2ccc(-c3cnc(C4CCN(C(=O)N5CCC5)CC4)nc3)cn2c1N(C)c1nc(-c2ccc(F)cc2)c(C#N)s1 [Compound 101, 2-((6-(2-(1-(azetidine-1-carbonyl)piperidin-4-yl)pyrimidin-5-yl)-2-ethylimidazo[1,2-a]pyridin-3-yl)(methyl)amino)-4-(4-fluorophenyl)thiazole-5-carbonitrile], the pIC50 was 6.70 to 7.70.
In the case of CCc1nc2ccc(-c3cnc(CC(=O)NC4CCNCC4)nc3)cn2c1N(C)c1nc(-c2ccc(F)cc2)c(C#N)s1 [Compound 65, 2-(5-(3-((5-cyano-4-(4-fluorophenyl)thiazol-2-yl)(methyl)amino)-2-ethylimidazo [1,2-a]pyridin-6-yl)pyrimidin-2-yl)-N-(piperidin-4-yl)acetamide], the pIC50 was 6.70 to 7.70.
CCc1nc2ccc(-c3cnc(N4CCN(C(=O)C5CC5)CC4)nc3)cn2c1N(C)c1nc(-c2ccc(F)cc2)c(C#N)s1 [Compound 110, 2-((6-(2-(4-(cyclopropanecarbonyl)piperazin-1-yl)pyrimidin-5-yl)-2-ethylimidazo[1,2-a]pyridin-3-yl)(methyl)amino)-4-(4-fluorophenyl) thiazole-5-carbonitrile] gave a pIC50 of 6.70 to 7.70.
With CCc1nc2ccc(-c3ccc(N4CCN(C(=O)C5CCCC5)CC4)nc3)cn2c1N(C)c1nc(-c2ccc(F)cc2)c(C#N)s1 [Compound 112, 2-((6-(6-(4-(cyclopentanecarbonyl)piperazin-1-yl)pyridin-3-yl)-2-ethylimidazo[1,2-a]pyridin-3-yl)(methyl)amino)-4-(4-fluorophenyl)thiazole-5-carbonitrile] the pIC50 was 6.70 to 7.70.
Work on CCc1nc2ccc(-c3cnc(CC(=O)N4CCOCC4)nc3)cn2c1N(C)c1nc(-c2ccc(F)cc2)c(C#N)s1 [Compound 59, 2-((2-ethyl-6-(2-(2-morpholino-2-oxoethyl)pyrimidin-5-yl)imidazo[1,2-a]pyridin-3-yl)(methyl)amino)-4-(4-fluorophenyl)thiazole-5-carbonitrile] yielded a pIC50 of 6.70 to 7.70.
With CCc1nc2ccc(-c3cnc(C4CCN(C(=O)C5CC5)CC4)nc3)cn2c1N(C)c1nc(-c2ccc(F)cc2)c(C#N)s1 [Compound 99, 2-((6-(2-(1-(cyclopropanecarbonyl)piperidin-4-yl)pyrimidin-5-yl)-2-ethylimidazo[1,2-a]pyridin-3-yl)(methyl)amino)-4-(4-fluorophenyl)thiazole-5-carbonitrile] the pIC50 was 6.70 to 7.70.
CCc1nc2ccc(-c3cnc(NC4CN(C(=O)C5CNC5)C4)nc3)cn2c1N(C)c1nc(-c2ccc(F)cc2)c(C#N)s1 [Compound 36, 2-((6-(2-((1-(azetidine-3-carbonyl)azetidin-3-yl)amino)pyrimidin-5-yl)-2-ethylimidazo[1,2-a]pyridin-3-yl)(methyl)amino)-4-(4-fluorophenyl) thiazole-5-carbonitrile] was tested, and the pIC50 was 6.70 to 7.70.
In the case of CCc1nc2ccc(-c3cnc(N4CC(NC(=O)[C@@H]5C[C@H](O)CN5)C4)nc3)cn2c1N(C)c1nc(-c2ccc(F)cc2)c(C#N)s1 [Compound 24, (2S,4S)—N-(1-(5-(3-((5-cyano-4-(4-fluorophenyl)thiazol-2-yl)(methyl)amino)-2-ethylimidazo[1,2-a]pyridin-6-yl)pyrimidin-2-yl)azetidin-3-yl)-4-hydroxy pyrrolidine-2-carboxamide], the pIC50 was 6.70 to 7.70.
With CCc1nc2ccc(-c3cnc(CC(=O)N4CCC(O)CC4)nc3)cn2c1N(C)c1nc(-c2ccc(F)cc2)c(C#N)s1 [Compound 57, 2-((2-ethyl-6-(2-(2-(4-hydroxypiperidin-1-yl)-2-oxoethyl)pyrimidin-5-yl)imidazo[1,2-a]pyridin-3-yl)(methyl)amino)-4-(4-fluorophenyl) thiazole-5-carbonitrile] the pIC50 was 6.70 to 7.70.
With CCc1nc2ccc(-c3cnc(N4CCC(C(=O)NC5CCNCC5)CC4)nc3)cn2c1N(C)c1nc(-c2ccc(F)cc2)c(C#N)s1 [Compound 73, 1-(5-(3-((5-cyano-4-(4-fluorophenyl)thiazol-2-yl)(methyl)amino)-2-ethylimidazo[1,2-a]pyridin-6-yl)pyrimidin-2-yl)-N-(piperidin-4-yl)piperidine-4-carboxamide] the pIC50 was at least 7.70.
CCc1nc2ccc(-c3ccc(N4CCC(NC5CNC5)CC4)nc3)cn2c1N(C)c1nc(-c2ccc(F)cc2)c(C#N)s1 [Compound 89 hydrochloride, 2-((6-(6-(4-(azetidin-3-ylamino)piperidin-1-yl)pyridin-3-yl)-2-ethylimidazo[1,2-a]pyridin-3-yl)(methyl)amino)-4-(4-fluorophenyl)thiazole-5-carbonitrile hydrochloride] gave a pIC50 of at least 7.70.
CCc1nc2ccc(-c3cnc(C(=O)NC4CCNCC4)nc3)cn2c1N(C)c1nc(-c2ccc(F)cc2)c(C#N)s1 [Compound 51, 5-(3-((5-cyano-4-(4-fluorophenyl)thiazol-2-yl) (methyl)amino)-2-ethylimidazo[1,2-a]pyridin-6-yl)-N-(piperidin-4-yl)pyrimidine-2-carboxamide] was tested, and the pIC50 was 6.70 to 7.70.
